# Results from BindingDB's records for doi:10.1016/S0960-894X(01)80110-4 (1994).
# Assay: Activity against thromboxane A2 receptor evaluated by aggregation of human platelets
row,SMILES,EC50
1,"CCCCCC(O)/C=C/[C@@H]1[C@@H](C/C=C\CCCC(N)=O)[C@@H]2C[C@H]1OC(=O)O2 (stereo partly drawn) [(Z)-7-[(1R,5S,6R,7R)-7-((E)-3-Hydroxy-oct-1-enyl)-3-oxo-2,4-dioxa-bicyclo[3.2.1]oct-6-yl]-hept-5-enoic acid amide]",3110 nM
2,"CCCCCC(O)/C=C/[C@@H]1[C@@H](C/C=C\CCCC(=O)O)[C@@H]2C[C@H]1OC(=O)O2 (stereo partly drawn) [(Z)-7-[(1R,5S,6R,7R)-7-((E)-3-Hydroxy-oct-1-enyl)-3-oxo-2,4-dioxa-bicyclo[3.2.1]oct-6-yl]-hept-5-enoic acid]",24 nM
